Legend:
Experiment in all cases: relative viability (nuclei count vs DMSO), 5 days (fraction); higher = more cells survive
XMD8-85 + Crizotinib = compound: CN1CCN(CC1)C2=CC(=C(C=C2)NC3=NC=C4C(=N3)N(C5=CC=CC=C5C(=O)N4C)C)OC [XMD8-85] + C[C@@H](Oc1cc(-c2cnn(C3CCNCC3)c2)cnc1N)c1c(Cl)ccc(F)c1Cl [Crizotinib] (partner 1 µM)
In short: (§1)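 One day after seeding in 1536-well plates, lung cancer cell lines were dosed by pin tool. Dosing was either single-drug or a fixed anchor-drug dose plus five library-drug doses (not always all listed) in √10 steps. After 5 days, nuclei were stained in one fix-and-stain step and counted on 4× images, and relative viability is the nuclei count of treated wells over that of vehicle wells, given as the median of duplicate plates.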

XMD8-85 + Luminespib = compound: CN1CCN(CC1)C2=CC(=C(C=C2)NC3=NC=C4C(=N3)N(C5=CC=CC=C5C(=O)N4C)C)OC [XMD8-85] + CCNC(=O)c1noc(-c2cc(C(C)C)c(O)cc2O)c1-c1ccc(CN2CCOCC2)cc1 [Luminespib] (partner 0.01 µM)
In short: as §1

XMD8-85 + Pemetrexed = compound: CN1CCN(CC1)C2=CC(=C(C=C2)NC3=NC=C4C(=N3)N(C5=CC=CC=C5C(=O)N4C)C)OC [XMD8-85] + Nc1nc2[nH]cc(CCc3ccc(C(=O)N[C@@H](CCC(=O)O)C(=O)O)cc3)c2c(=O)[nH]1 [Pemetrexed] (partner 0.2 µM)
In short: as §1

4EGI-1 + OSI-027 = compound: O=C(O)C(Cc1ccccc1[N+](=O)[O-])=NNc1nc(-c2ccc(Cl)c(Cl)c2)cs1 (mixture of isomers) [4EGI-1] + COc1cccc2cc(-c3nc([C@H]4CC[C@H](C(=O)O)CC4)n4ncnc(N)c34)[nH]c12 [OSI-027] (partner 0.5 µM)
In short: as §1

| Cell Line | relative viability (XMD8-85 + Crizotinib; first compound 0.253 µM) | relative viability (XMD8-85 + Crizotinib; first compound 0.8 µM) | relative viability (XMD8-85 + Crizotinib; first compound 2.53 µM) | relative viability (XMD8-85 + Crizotinib; first compound 8 µM) | relative viability (XMD8-85 + Luminespib; first compound 0.08 µM) | relative viability (XMD8-85 + Luminespib; first compound 0.253 µM) | relative viability (XMD8-85 + Luminespib; first compound 0.8 µM) | relative viability (XMD8-85 + Luminespib; first compound 2.53 µM) | relative viability (XMD8-85 + Luminespib; first compound 8 µM) | relative viability (XMD8-85 + Crizotinib; first compound 0.08 µM) | relative viability (XMD8-85 + Pemetrexed; first compound 0.08 µM) | relative viability (XMD8-85 + Pemetrexed; first compound 0.253 µM) | relative viability (XMD8-85 + Pemetrexed; first compound 0.8 µM) | relative viability (XMD8-85 + Pemetrexed; first compound 2.53 µM) | relative viability (XMD8-85 + Pemetrexed; first compound 8 µM) | relative viability (4EGI-1 + OSI-027; first compound 0.5 µM) | relative viability (4EGI-1 + OSI-027; first compound 1.581 µM) | relative viability (4EGI-1 + OSI-027; first compound 5 µM) | relative viability (4EGI-1 + OSI-027; first compound 15.81 µM) | relative viability (4EGI-1 + OSI-027; first compound 50 µM) |
| --- | --- | --- | --- | --- | --- | --- | --- | --- | --- | --- | --- | --- | --- | --- | --- | --- | --- | --- | --- | --- |
| NCI-H1703 | 0.586 | 0.649 | 0.47 | 0.315 |  |  |  |  |  |  |  |  |  |  |  |  |  |  |  |  |
| 201T | 1.04 | 1.03 | 1.03 | 0.949 | 1.06 | 1.1 | 1.02 | 1.03 | 0.936 | 1.02 | 0.329 | 0.329 | 0.368 | 0.325 | 0.288 | 0.791 | 0.622 | 0.824 | 0.704 | 0.656 |
| LK-2 | 0.244 | 0.201 | 0.226 | 0.262 |  | 0.184 | 0.192 | 0.155 | 0.162 | 0.232 | 0.322 | 0.289 | 0.282 | 0.212 | 0.173 | 0.196 |  | 0.201 | 0.182 | 0.178 |
| HCC-78 | 0.364 | 0.304 | 0.37 | 0.295 |  |  |  |  |  | 0.363 | 0.915 | 0.892 | 0.906 | 0.95 | 0.855 | 0.356 |  | 0.38 | 0.34 | 0.362 |
| EMC-BAC-2 |  | 0.794 | 0.662 | 0.72 | 1.26 | 1.24 | 1.21 | 1.28 | 0.951 | 0.748 | 0.391 | 0.423 | 0.45 | 0.411 | 0.376 | 0.39 | 0.342 | 0.4 | 0.374 | 0.327 |
| NCI-H2023 | 0.627 | 0.705 | 0.544 | 0.287 | 0.406 | 0.751 |  | 0.649 | 0.407 | 0.578 | 0.189 | 0.223 | 0.326 | 0.255 | 0.165 | 0.712 |  | 0.359 | 0.162 | 0.0791 |
| SK-MES-1 | 1.03 | 0.94 | 0.923 | 0.61 | 0.823 | 0.768 | 0.779 | 0.655 | 0.409 | 0.964 | 0.857 | 1.08 | 1 | 0.9 | 0.44 | 0.704 | 0.523 | 0.611 | 0.548 | 0.199 |
| NCI-H1755 | 0.978 | 0.892 | 0.939 | 0.748 | 0.672 | 0.414 | 0.344 | 0.482 | 0.342 | 0.901 | 0.405 | 0.441 | 0.444 | 0.427 | 0.444 | 0.791 | 0.663 | 0.693 | 0.713 | 0.487 |
| NCI-H2405 | 0.815 | 0.769 | 0.85 | 0.665 | 0.63 | 0.727 | 0.625 | 0.704 | 0.643 | 0.829 | 1.12 | 1.05 | 1.04 | 1.01 | 0.602 | 0.679 | 0.557 | 0.677 | 0.698 | 0.693 |
